PubChem BioAssay AID330 (DTP/NCI, 2004)
Values joined by “and” are separate entries in the source; they are usually repeats but may differ in a detail not shown here. Identical values can stand only once. Toxic doses and inconclusive results are not listed. Rule for the calls: active = survival T/C of 150% or more; inactive = T/C below 125% in these data. Peptide text beside a SMILES is read from it.

Tested on: P388 leukemia ip, CD2F1 mice, survival T/C
Test: NCI In Vivo Anticancer Drug Screen. Data for tumor model P388 Leukemia (intraperitoneal) in CD2F1 (CDF1) mice
Conditions: endpoint: median survival time, higher = longer survival
Method in brief: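 Mice carrying the transplanted tumor received test compound or vehicle. Survival was recorded in each group, and the value is the treated-group measurement divided by that of the vehicle-treated control group.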

[1] = dose: 12.5 mg/kg/injection, schedule: Q01DX009 (ip), vehicle: other
[2] = dose: 25.0 mg/kg/injection, schedule: Q01DX009 (ip), vehicle: other
[3] = dose: 50.0 mg/kg/injection, schedule: Q01DX009 (ip), vehicle: other
[4] = dose: 100.0 mg/kg/injection, schedule: Q01DX009 (ip), vehicle: other
[5] = dose: 200.0 mg/kg/injection, schedule: Q01DX009 (ip), vehicle: other
[6] = dose: 12.5 mg/kg/injection, schedule: Q01DX009 (ip), vehicle: saline
[7] = dose: 25.0 mg/kg/injection, schedule: Q01DX009 (ip), vehicle: saline
[8] = dose: 50.0 mg/kg/injection, schedule: Q01DX009 (ip), vehicle: saline
[9] = dose: 100.0 mg/kg/injection, schedule: Q01DX009 (ip), vehicle: saline
[10] = dose: 200.0 mg/kg/injection, schedule: Q01DX009 (ip), vehicle: saline
[11] = dose: 25.0 mg/kg/injection, schedule: Q04DX002 (ip), vehicle: saline with Tween-80
[12] = dose: 50.0 mg/kg/injection, schedule: Q04DX002 (ip), vehicle: saline with Tween-80
[13] = dose: 100.0 mg/kg/injection, schedule: Q04DX002 (ip), vehicle: saline with Tween-80

Measured: T/C

Cc1c2c(C#N)nccc2c(C)c2c1c1ccccc1n2Cc1ccccc1
inactive: dose: 6.25 mg/kg/injection, schedule: Q04DX003 (ip), vehicle: distilled water + Tween-80 96 % of control | dose: 12.5 mg/kg/injection, schedule: Q04DX003 (ip), vehicle: distilled water + Tween-80 90 % of control | dose: 25.0 mg/kg/injection, schedule: Q04DX003 (ip), vehicle: distilled water + Tween-80 87 % of control | dose: 50.0 mg/kg/injection, schedule: Q04DX003 (ip), vehicle: distilled water + Tween-80 87 % of control | dose: 100.0 mg/kg/injection, schedule: Q04DX003 (ip), vehicle: distilled water + Tween-80 90 % of control | dose: 200.0 mg/kg/injection, schedule: Q04DX003 (ip), vehicle: distilled water + Tween-80 91 % of control

OCc1ccc2ccc3ccc(CO)nc3c2n1
inactive: dose: 12.5 mg/kg/injection, schedule: Q01DX005 (ip), vehicle: saline with Tween-80 97 % of control | dose: 25.0 mg/kg/injection, schedule: Q01DX005 (ip), vehicle: saline with Tween-80 111 % of control | dose: 50.0 mg/kg/injection, schedule: Q01DX005 (ip), vehicle: saline with Tween-80 104 % of control and 109 % of control | dose: 100.0 mg/kg/injection, schedule: Q01DX005 (ip), vehicle: saline with Tween-80 113 % of control

Nc1nc(N)c2nc(CCc3ccc(C(=O)NC(CCC(=O)O)C(=O)O)cc3)cnc2n1 (centres undefined)
active: dose: 1.5 mg/kg/injection, schedule: Q01DX009 (ip), vehicle: sodium bicarbonate 171 % of control | dose: 1.75 mg/kg/injection, schedule: Q01DX009 (ip), vehicle: sodium bicarbonate 204 % of control | dose: 2.0 mg/kg/injection, schedule: Q01DX009 (ip), vehicle: sodium bicarbonate 214 % of control

CC(C)=CCC(/C=N/N=C(N)N)C(C)C (centres undefined)
inactive: dose: 6.25 mg/kg/injection, schedule: Q01DX005 (ip), vehicle: suspension in saline 96 % of control | dose: 12.5 mg/kg/injection, schedule: Q01DX005 (ip), vehicle: suspension in saline 97 % of control | dose: 25.0 mg/kg/injection, schedule: Q01DX005 (ip), vehicle: suspension in saline 96 % of control

CC(C)C=C1[C@H](O)CC[C@@H]1O
inactive: dose: 100.0 mg/kg/injection, schedule: Q04DX002 (ip), vehicle: saline 101 % of control | dose: 200.0 mg/kg/injection, schedule: Q04DX002 (ip), vehicle: saline 101 % of control | dose: 400.0 mg/kg/injection, schedule: Q04DX002 (ip), vehicle: saline 96 % of control

O=C1c2ccccc2C(=O)N1CCP(=O)(c1ccccc1)c1ccccc1
inactive: [1] 98 % of control | [2] 106 % of control | [3] 98 % of control | [4] 91 % of control | [5] 91 % of control

CS/C(=C1/C(=O)N(c2ccccc2)N=C1c1ccccc1)N1CC1
inactive: dose: 100.0 mg/kg/injection, schedule: Q04DX003 (ip), vehicle: Klucel (hydroxypropylcellulose) (HPC) 98 % of control | dose: 200.0 mg/kg/injection, schedule: Q04DX003 (ip), vehicle: Klucel (hydroxypropylcellulose) (HPC) 94 % of control | dose: 400.0 mg/kg/injection, schedule: Q04DX003 (ip), vehicle: Klucel (hydroxypropylcellulose) (HPC) 95 % of control

Nc1nnc(N)n1N
inactive: dose: 50.0 mg/kg/injection, schedule: Q01DX009 (ip), vehicle: saline with Tween-80 108 % of control | dose: 100.0 mg/kg/injection, schedule: Q01DX009 (ip), vehicle: saline with Tween-80 115 % of control | dose: 200.0 mg/kg/injection, schedule: Q01DX009 (ip), vehicle: saline with Tween-80 99 % of control | dose: 400.0 mg/kg/injection, schedule: Q01DX009 (ip), vehicle: saline with Tween-80 93 % of control

O=C(NO)c1ccncc1
inactive: dose: 100.0 mg/kg/injection, schedule: Q04DX003 (ip), vehicle: saline 100 % of control | dose: 200.0 mg/kg/injection, schedule: Q04DX003 (ip), vehicle: saline 109 % of control | dose: 400.0 mg/kg/injection, schedule: Q04DX003 (ip), vehicle: saline 109 % of control

COc1ccc([N+](=O)[O-])c(O)c1OC
inactive: [1] 94 % of control | [2] 96 % of control | [3] 97 % of control | [4] 94 % of control | [5] 96 % of control

O=C1C=CC(=O)O1 (tested in a mixture with another compound)
inactive: dose: 6.25 mg/kg/injection, schedule: Q01DX009 (ip), vehicle: saline 117 % of control | [6] 100 % of control | [7] 102 % of control and 108 % of control and 89 % of control | dose: 25.0 mg/kg/injection, schedule: Q04DX003 (ip), vehicle: saline 120 % of control | [8] 108 % of control [middle of 4 runs] | [9] 100 % of control and 108 % of control and 109 % of control | dose: 150.0 mg/kg/injection, schedule: Q01DX009 (ip), vehicle: saline 120 % of control | [10] 108 % of control and 115 % of control and 120 % of control

C[N+](C)(C)CCO
inactive: [6] 105 % of control | [7] 98 % of control | [8] 96 % of control

C[C@H]1CCC2=C(C1)NC(N)=NC2(C)C
inactive: dose: 12.5 mg/kg/injection, schedule: Q04DX002 (ip), vehicle: saline with Tween-80 93 % of control | [11] 93 % of control | [12] 98 % of control

CC(O)C(N)C(=O)NC(Cc1ccc(O)cc1)C(=O)NC(CO)C(=O)NC(CCCCN)C(=O)O (centres undefined) (H-TYSK-OH; configuration not given here)
inactive: dose: 50.0 mg/kg/injection, schedule: Q01DX005 (ip), vehicle: saline 99 % of control | dose: 100.0 mg/kg/injection, schedule: Q01DX005 (ip), vehicle: saline 107 % of control | dose: 200.0 mg/kg/injection, schedule: Q01DX005 (ip), vehicle: saline 106 % of control

c1cc2nc(N3CCNCC3)nc(N3CCOCC3)c2s1
inactive: [8] 94 % of control | [9] 97 % of control | [10] 93 % of control

Cc1ncc(CO)n1Cc1ccc(Cl)cc1
inactive: dose: 50.0 mg/kg/injection, schedule: Q01DX009 (ip), vehicle: Klucel (hydroxypropylcellulose) (HPC) 104 % of control | dose: 100.0 mg/kg/injection, schedule: Q01DX009 (ip), vehicle: Klucel (hydroxypropylcellulose) (HPC) 99 % of control | dose: 200.0 mg/kg/injection, schedule: Q01DX009 (ip), vehicle: Klucel (hydroxypropylcellulose) (HPC) 94 % of control

COc1ccc(-c2c(C(N)=O)cnc(C)c2C)c(OCc2ccccc2)c1OC
inactive: dose: 0.05 mg/kg/injection, schedule: Q01DX009 (ip), vehicle: water 104 % of control | dose: 0.1 mg/kg/injection, schedule: Q01DX009 (ip), vehicle: water 117 % of control | dose: 0.2 mg/kg/injection, schedule: Q01DX009 (ip), vehicle: water 104 % of control | dose: 0.4 mg/kg/injection, schedule: Q01DX009 (ip), vehicle: water 103 % of control and 117 % of control | dose: 0.8 mg/kg/injection, schedule: Q01DX009 (ip), vehicle: water 106 % of control | dose: 1.6 mg/kg/injection, schedule: Q01DX009 (ip), vehicle: water 106 % of control | dose: 3.2 mg/kg/injection, schedule: Q01DX009 (ip), vehicle: water 109 % of control | dose: 6.25 mg/kg/injection, schedule: Q01DX009 (ip), vehicle: other 98 % of control | dose: 6.4 mg/kg/injection, schedule: Q01DX009 (ip), vehicle: water 109 % of control | [1] 101 % of control | [2] 103 % of control | [3] 105 % of control | [4] 105 % of control | [5] 104 % of control | dose: 400.0 mg/kg/injection, schedule: Q01DX009 (ip), vehicle: other 107 % of control

CN1C=CC2C(C#N)CC2C1=O (centres undefined)
inactive: [13] 101 % of control | dose: 200.0 mg/kg/injection, schedule: Q04DX002 (ip), vehicle: saline with Tween-80 110 % of control | dose: 400.0 mg/kg/injection, schedule: Q04DX002 (ip), vehicle: saline with Tween-80 110 % of control

O=C(NC12CC3CC(CC(C3)C1)C2)OCCN1CCN(CCCN2c3ccccc3Sc3ccc(C(F)(F)F)cc32)CC1
inactive: [11] 97 % of control | [12] 101 % of control | [13] 104 % of control and 113 % of control

CC(COS(C)(=O)=O)OS(C)(=O)=O (centres undefined)
inactive: dose: 50.0 mg/kg/injection, schedule: Q01DX001 (ip), vehicle: Klucel (hydroxypropylcellulose) (HPC) 98 % of control | dose: 100.0 mg/kg/injection, schedule: Q01DX001 (ip), vehicle: Klucel (hydroxypropylcellulose) (HPC) 93 % of control | dose: 200.0 mg/kg/injection, schedule: Q01DX001 (ip), vehicle: Klucel (hydroxypropylcellulose) (HPC) 101 % of control

COCC(CN1CCN(c2ccccc2OC)CC1)OC (centres undefined)
inactive: [6] 97 % of control | [7] 98 % of control | [8] 90 % of control
